Several values for one entry are separate records, joined by “and”; a condition that tells them apart may be missing. Equal entries are not always repeated. Inconclusive results and toxic doses are left out. Cut-off read from the data, not from the text of the source: active = T/C of 150% or more; inactive = T/C below 125%.
Test system: L1210 leukemia ip in BDF1 mice, survival T/C
Test: NCI In Vivo Anticancer Drug Screen. Data for tumor model L1210 Leukemia (intraperitoneal) in B6D2F1 (BDF1) mice
Settings: endpoint: mean survival time, higher = longer survival
Summary of the method: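 Tumor cells were implanted, animals were treated, and survival was followed. The result divides the treated measurement by the vehicle-control measurement.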

[1] = dose: 100.0 mg/kg/injection, schedule: Q01DX009 (ip), vehicle: Klucel (hydroxypropylcellulose) (HPC)
[2] = dose: 100.0 mg/kg/injection, schedule: Q04DX003 (ip), vehicle: Klucel (hydroxypropylcellulose) (HPC)
[3] = dose: 200.0 mg/kg/injection, schedule: Q01DX009 (ip), vehicle: Klucel (hydroxypropylcellulose) (HPC)
[4] = dose: 200.0 mg/kg/injection, schedule: Q04DX003 (ip), vehicle: Klucel (hydroxypropylcellulose) (HPC)
[5] = dose: 400.0 mg/kg/injection, schedule: Q04DX003 (ip), vehicle: Klucel (hydroxypropylcellulose) (HPC)
[6] = dose: 100.0 mg/kg/injection, schedule: Q04DX002 (ip), vehicle: saline with Tween-80
[7] = dose: 25.0 mg/kg/injection, schedule: Q01DX009 (ip), vehicle: Klucel (hydroxypropylcellulose) (HPC)
[8] = dose: 100.0 mg/kg/injection, schedule: Q04DX003 (ip), vehicle: saline with Tween-80
[9] = dose: 200.0 mg/kg/injection, schedule: Q04DX003 (ip), vehicle: saline with Tween-80
[10] = dose: 400.0 mg/kg/injection, schedule: Q04DX003 (ip), vehicle: saline with Tween-80
[11] = dose: 100.0 mg/kg/injection, schedule: Q01DX001 (ip), vehicle: saline
[12] = dose: 400.0 mg/kg/injection, schedule: Q01DX001 (ip), vehicle: saline
[13] = dose: 100.0 mg/kg/injection, schedule: Q01DX001 (ip), vehicle: carboxymethylcellulose (CMC)
[14] = dose: 200.0 mg/kg/injection, schedule: Q01DX001 (ip), vehicle: carboxymethylcellulose (CMC)
[15] = dose: 400.0 mg/kg/injection, schedule: Q01DX001 (ip), vehicle: carboxymethylcellulose (CMC)

Measured: T/C

Cc1ccc(S(=O)(=O)NN=C2CCCCC2)cc1
inactive: dose: 75.0 mg/kg/injection, schedule: Q01DX001 (ip), vehicle: saline 90 % of control | dose: 150.0 mg/kg/injection, schedule: Q01DX001 (ip), vehicle: saline 90 % of control | dose: 300.0 mg/kg/injection, schedule: Q01DX001 (ip), vehicle: saline 90 % of control

O=[N+]([O-])C1C=NCCN=C1
inactive: dose: 100.0 mg/kg/injection, schedule: Q04DX013 (ip), vehicle: carboxymethylcellulose (CMC) 96 % of control | dose: 200.0 mg/kg/injection, schedule: Q04DX013 (ip), vehicle: carboxymethylcellulose (CMC) 94 % of control | dose: 400.0 mg/kg/injection, schedule: Q04DX013 (ip), vehicle: carboxymethylcellulose (CMC) 94 % of control

CC(C)(O)c1cccc(F)c1
inactive: dose: 50.0 mg/kg/injection, schedule: Q01DX009 (ip), vehicle: saline with Tween-80 90 % of control | dose: 100.0 mg/kg/injection, schedule: Q01DX009 (ip), vehicle: saline with Tween-80 93 % of control | dose: 200.0 mg/kg/injection, schedule: Q01DX009 (ip), vehicle: saline with Tween-80 121 % of control

CN(C)c1ccc(C(=C(C#N)C#N)c2ccc(N(C)C)cc2)cc1
inactive: [1] 98 % of control | [2] 95 % of control | [3] 98 % of control | [4] 101 % of control | dose: 400.0 mg/kg/injection, schedule: Q01DX009 (ip), vehicle: Klucel (hydroxypropylcellulose) (HPC) 102 % of control | [5] 101 % of control

CCCCOP(=O)(c1ccccc1)N1CCCCC1 (stereo unspecified)
inactive: dose: 25.0 mg/kg/injection, schedule: Q04DX002 (ip), vehicle: saline with Tween-80 103 % of control | dose: 50.0 mg/kg/injection, schedule: Q04DX002 (ip), vehicle: saline with Tween-80 103 % of control | [6] 92 % of control and 107 % of control

CC(=O)OCC1OC(S[As](C)SC2OC(COC(C)=O)C(OC(C)=O)C(OC(C)=O)C2OC(C)=O)C(OC(C)=O)C(OC(C)=O)C1OC(C)=O (stereo unspecified)
inactive: dose: 6.25 mg/kg/injection, schedule: Q01DX009 (ip), vehicle: saline with Tween-80 101 % of control | dose: 12.5 mg/kg/injection, schedule: Q01DX009 (ip), vehicle: saline with Tween-80 116 % of control | dose: 25.0 mg/kg/injection, schedule: Q01DX009 (ip), vehicle: saline with Tween-80 116 % of control

Cc1ccccc1SC(=O)Nc1cccc(Cl)c1Cl
inactive: [7] 112 % of control | dose: 50.0 mg/kg/injection, schedule: Q01DX009 (ip), vehicle: Klucel (hydroxypropylcellulose) (HPC) 104 % of control | [1] 94 % of control and 103 % of control | [3] 87 % of control

COC(=O)c1ccccc1OC(=S)N(C)C
inactive: [8] 113 % of control | [9] 103 % of control | [10] 114 % of control

Cc1c(CCO)sc[n+]1Cc1cccc([N+](=O)[O-])c1
inactive: [11] 98 % of control

CC(C)C(C)(O)C#N (stereo unspecified)
inactive: dose: 5.0 mg/kg/injection, schedule: Q01DX001 (ip), vehicle: saline 92 % of control | dose: 10.0 mg/kg/injection, schedule: Q01DX001 (ip), vehicle: saline 97 % of control | dose: 20.0 mg/kg/injection, schedule: Q01DX001 (ip), vehicle: saline 100 % of control

Nc1ccn(C2OC(CO)C(OP(=O)(O)O)C2O)c(=O)n1 (stereo unspecified)
inactive: dose: 40.0 mg/kg/injection, schedule: Q01DX001 (ip), vehicle: water 102 % of control | dose: 80.0 mg/kg/injection, schedule: Q01DX001 (ip), vehicle: water 97 % of control

O=C1c2ccccc2C(=O)c2c(O)c3c(c(O)c21)CCCC3OC1OC(CO)C(O)C(O)C1O (stereo unspecified)
inactive: [12] 91 % of control

COC(=O)C1=C(C(=O)OC)C2(C)OC1C1OC12 (stereo unspecified)
inactive: dose: 12.5 mg/kg/injection, schedule: Q01DX009 (ip), vehicle: Klucel (hydroxypropylcellulose) (HPC) 97 % of control | [7] 90 % of control

O=C(Cc1ccccc1)c1ccc(OCC2CO2)cc1 (stereo unspecified)
inactive: [8] 96 % of control | [9] 94 % of control | [10] 94 % of control

COC1OC(COCc2ccccc2)C(OCc2ccccc2)C(OC)C1O (stereo unspecified)
inactive: [8] 96 % of control | [9] 94 % of control | [10] 104 % of control

O=S(Cc1ccc(Cl)cc1)c1ccc(Cl)cc1 (stereo unspecified)
inactive: [2] 97 % of control | [4] 90 % of control | [5] 104 % of control

CCOC(=O)C[N+]1(C)CCC(O)CC1 (stereo unspecified)
inactive: dose: 100.0 mg/kg/injection, schedule: Q04DX003 (ip), vehicle: saline 98 % of control | dose: 200.0 mg/kg/injection, schedule: Q04DX003 (ip), vehicle: saline 98 % of control | dose: 400.0 mg/kg/injection, schedule: Q04DX003 (ip), vehicle: saline 101 % of control

CC(C)(C=O)CO
inactive: [6] 94 % of control | dose: 200.0 mg/kg/injection, schedule: Q04DX002 (ip), vehicle: saline with Tween-80 97 % of control | dose: 400.0 mg/kg/injection, schedule: Q04DX002 (ip), vehicle: saline with Tween-80 91 % of control

CC1(C)N=C(N)N=C(N)N1c1ccc(CCCCc2ccc(S(=O)(=O)F)cc2)c(Cl)c1
inactive: dose: 7.5 mg/kg/injection, schedule: Q01DX001 (ip), vehicle: saline 99 % of control | dose: 7.5 mg/kg/injection, schedule: Q04DX003 (ip), vehicle: saline 104 % of control | dose: 13.0 mg/kg/injection, schedule: Q01DX007 (ip), vehicle: saline with Tween-80 109 % of control | dose: 15.0 mg/kg/injection, schedule: Q01DX001 (ip), vehicle: saline 99 % of control | dose: 15.0 mg/kg/injection, schedule: Q04DX003 (ip), vehicle: saline 106 % of control | dose: 20.0 mg/kg/injection, schedule: Q01DX007 (ip), vehicle: saline with Tween-80 116 % of control | dose: 30.0 mg/kg/injection, schedule: Q01DX001 (ip), vehicle: saline 94 % of control | dose: 30.0 mg/kg/injection, schedule: Q01DX007 (ip), vehicle: saline with Tween-80 122 % of control | dose: 30.0 mg/kg/injection, schedule: Q04DX003 (ip), vehicle: saline 109 % of control | dose: 45.0 mg/kg/injection, schedule: Q01DX007 (ip), vehicle: saline with Tween-80 95 % of control

COC1=C2C=[N+](C)C3C(=C2C=CC1OC)Cc1cc(OC)c(OC)cc13 (stereo unspecified)
inactive: dose: 50.0 mg/kg/injection, schedule: Q01DX001 (ip), vehicle: saline 98 % of control | [11] 93 % of control | dose: 200.0 mg/kg/injection, schedule: Q01DX001 (ip), vehicle: saline 102 % of control | [12] 96 % of control

ClCCN(CCCl)c1ccc(C=Nc2ccc(-c3ccccn3)cc2)cc1
inactive: dose: 50.0 mg/kg/injection, schedule: Q01DX001 (ip), vehicle: carboxymethylcellulose (CMC) 102 % of control | [13] 96 % of control | [14] 91 % of control | [15] 100 % of control

Cc1cc(=O)[nH]c2c(C)cc(Cc3cc(C)c4[nH]c(=O)cc(C)c4c3)cc12
inactive: [13] 96 % of control | [14] 101 % of control | [15] 103 % of control

Nc1ncnc2nc(-c3cc(Cl)c(OCc4ccccc4)c(Cl)c3)[nH]c12
inactive: dose: 100.0 mg/kg/injection, schedule: Q01DX001 (ip), vehicle: Klucel (hydroxypropylcellulose) (HPC) 100 % of control | dose: 200.0 mg/kg/injection, schedule: Q01DX001 (ip), vehicle: Klucel (hydroxypropylcellulose) (HPC) 89 % of control | dose: 400.0 mg/kg/injection, schedule: Q01DX001 (ip), vehicle: Klucel (hydroxypropylcellulose) (HPC) 92 % of control
